Results reported in ChEMBL document CHEMBL2424569, “Synthesis of halogenated derivatives of thymol and their antimicrobial activities” (2013).
Converted amounts (≈) assume the structure as drawn. The source made the active and inactive calls. The calls are words filed in the database; no cut-off is given here.

Columns and labels:
Format in all cases: functional
Streptococcus mutans [1] = assay: Antibacterial activity against Streptococcus mutans by two-fold serial dilution assay
Staphylococcus aureus [2] = assay: Antibacterial activity against Staphylococcus aureus at MIC after 48 hrs by disc diffusion assay
Klebsiella pneumoniae [3] = assay: Antibacterial activity against Klebsiella pneumoniae at MIC after 48 hrs by disc diffusion assay
Staphylococcus aureus [4] = assay: Antibacterial activity against Staphylococcus aureus by two-fold serial dilution assay
Klebsiella aerogenes [5] = assay: Antibacterial activity against Enterobacter aerogenes at MIC after 48 hrs by disc diffusion assay
[6] = tested on: Staphylococcus epidermidis; assay: Antibacterial activity against Staphylococcus epidermidis by two-fold serial dilution assay
Enterococcus faecalis [7] = assay: Antibacterial activity against Enterococcus faecalis by two-fold serial dilution assay
Streptococcus mutans [8] = assay: Antibacterial activity against Streptococcus mutans at MIC after 48 hrs by disc diffusion assay
Klebsiella pneumoniae [9] = assay: Antibacterial activity against Klebsiella pneumoniae by two-fold serial dilution assay
Enterococcus faecalis [10] = assay: Antibacterial activity against Enterococcus faecalis at MIC after 48 hrs by disc diffusion assay
Escherichia coli [11] = assay: Antibacterial activity against Escherichia coli at MIC after 48 hrs by disc diffusion assay
[12] = tested on: Staphylococcus epidermidis; assay: Antibacterial activity against Staphylococcus epidermidis at MIC after 48 hrs by disc diffusion assay
Escherichia coli [13] = assay: Antibacterial activity against Escherichia coli by two-fold serial dilution assay
Klebsiella aerogenes [14] = assay: Antibacterial activity against Enterobacter aerogenes by two-fold serial dilution assay
Candida albicans [15] = assay: Antifungal activity against Candida albicans AI at MIC after 7 to 10 days by disc diffusion assay
Candida albicans [16] = assay: Antifungal activity against Candida albicans MTCC by two-fold serial dilution assay
Candida albicans [17] = assay: Antifungal activity against Candida albicans MTCC at MIC after 7 to 10 days by disc diffusion assay
Candida albicans [18] = assay: Antifungal activity against Candida albicans CN by two-fold serial dilution assay
Candida albicans [19] = assay: Antifungal activity against Candida albicans AI by two-fold serial dilution assay
Candida albicans [20] = assay: Antifungal activity against Candida albicans CN at MIC after 7 to 10 days by disc diffusion assay

| SMILES | Activity (Candida albicans [15]) | Activity (Candida albicans [16]) | Activity (Candida albicans [17]) | Activity (Candida albicans [18]) | Activity (Candida albicans [19]) | Activity (Candida albicans [20]) | Activity (Streptococcus mutans [1]) | Activity (Staphylococcus aureus [2]) | Activity (Klebsiella pneumoniae [3]) | Activity (Staphylococcus aureus [4]) | Activity (Klebsiella aerogenes [5]) | Activity [6] | Activity (Enterococcus faecalis [7]) | Activity (Streptococcus mutans [8]) | Activity (Klebsiella pneumoniae [9]) | Activity (Enterococcus faecalis [10]) | Activity (Escherichia coli [11]) | Activity [12] | Activity (Escherichia coli [13]) | Activity (Klebsiella aerogenes [14]) | other results |
| --- | --- | --- | --- | --- | --- | --- | --- | --- | --- | --- | --- | --- | --- | --- | --- | --- | --- | --- | --- | --- | --- |
| CN[C@@H]1[C@H](O[C@H]2[C@H](O[C@H]3[C@H](O)[C@@H](O)[C@H](N=C(N)N)[C@@H](O)[C@@H]3N=C(N)N)O[C@@H](C)[C@]2(O)C=O)O[C@@H](CO)[C@H](O)[C@H]1O [STREPTOMYCIN] |  |  |  |  |  |  |  |  |  |  |  |  |  |  |  |  |  |  |  |  | MIC (Streptococcus mutans [1]): 6.35 µg/mL (≈ 10.9 µM); inhibition zone (IZ) (Staphylococcus aureus [2]): 9 mm; inhibition zone (IZ) (Klebsiella pneumoniae [3]): 9 mm; MIC (Staphylococcus aureus [4]): 12.5 µg/mL (≈ 21.5 µM); inhibition zone (IZ) (Klebsiella aerogenes [5]): 10 mm; MIC [6]: 6.35 µg/mL (≈ 10.9 µM); MIC (Enterococcus faecalis [7]): 0.36 µg/mL (≈ 0.619 µM); inhibition zone (IZ) (Streptococcus mutans [8]): 13 mm; MIC (Klebsiella pneumoniae [9]): 2.71 µg/mL (≈ 4.66 µM); inhibition zone (IZ) (Enterococcus faecalis [10]): 10 mm; inhibition zone (IZ) (Escherichia coli [11]): 9 mm; inhibition zone (IZ) [12]: 9 mm; MIC (Escherichia coli [13]): 1.35 µg/mL (≈ 2.32 µM); MIC (Klebsiella aerogenes [14]): 2.71 µg/mL (≈ 4.66 µM) |
| Cc1ccc(C(C)C)c(O)c1Br | inactive | inactive | inactive | inactive | inactive | inactive |  |  |  |  |  |  |  |  |  |  |  |  |  |  | MIC (Streptococcus mutans [1]): 125 µg/mL (≈ 546 µM); inhibition zone (IZ) (Klebsiella aerogenes [5]): 2 mm; inhibition zone (IZ) (Streptococcus mutans [8]): 3 mm; MIC (Klebsiella aerogenes [14]): 100 µg/mL (≈ 436 µM) |
| Cc1ccc(C(C)C)c(O)c1 [THYMOL] |  |  |  |  |  |  |  |  |  |  |  |  |  |  |  |  |  |  |  |  | MIC (Streptococcus mutans [1]): 62.5 µg/mL (≈ 416 µM); inhibition zone (IZ) (Staphylococcus aureus [2]): 12 mm; inhibition zone (IZ) (Klebsiella pneumoniae [3]): 6 mm; MIC (Staphylococcus aureus [4]): 125 µg/mL (≈ 832 µM); inhibition zone (IZ) (Klebsiella aerogenes [5]): 8 mm; MIC [6]: 32.2 µg/mL (≈ 215 µM); MIC (Enterococcus faecalis [7]): 62.5 µg/mL (≈ 416 µM); inhibition zone (IZ) (Streptococcus mutans [8]): 11 mm; inhibition zone (IZ) (Candida albicans [15]): 5 mm; MIC (Klebsiella pneumoniae [9]): 250 µg/mL (≈ 1660 µM); MIC (Candida albicans [16]): 100 µg/mL (≈ 666 µM); inhibition zone (IZ) (Enterococcus faecalis [10]): 10 mm; inhibition zone (IZ) (Candida albicans [17]): 8 mm; inhibition zone (IZ) (Escherichia coli [11]): 3 mm; inhibition zone (IZ) [12]: 18 mm; MIC (Candida albicans [18]): 100 µg/mL (≈ 666 µM); MIC (Candida albicans [19]): 100 µg/mL (≈ 666 µM); inhibition zone (IZ) (Candida albicans [20]): 6 mm; MIC (Escherichia coli [13]): 100 µg/mL (≈ 666 µM); MIC (Klebsiella aerogenes [14]): 125 µg/mL (≈ 832 µM) |
| COc1c(C(C)C)ccc(C)c1Br | inactive | inactive | inactive | inactive | inactive | inactive | inactive | inactive | inactive | inactive | inactive | inactive | inactive | inactive | inactive | inactive | inactive | inactive | inactive | inactive |  |
| Cc1c(Cl)cc(C(C)C)c(O)c1Br | inactive | inactive | inactive | inactive | inactive | inactive | inactive | inactive | inactive | inactive | inactive | inactive | inactive | inactive | inactive | inactive | inactive | inactive | inactive | inactive |  |
| Cc1c(Br)cc(C(C)C)c(O)c1Br | inactive | inactive | inactive | inactive | inactive | inactive |  |  |  |  |  |  |  |  |  |  |  |  |  |  | inhibition zone (IZ) (Staphylococcus aureus [2]): 13 mm; MIC (Staphylococcus aureus [4]): 250 µg/mL (≈ 812 µM); MIC [6]: 1000 µg/mL (≈ 3250 µM); inhibition zone (IZ) [12]: 16 mm |
| Cc1c(Cl)cc(C(C)C)c(O)c1Cl | inactive | inactive | inactive | inactive | inactive | inactive | inactive | inactive | inactive | inactive | inactive | inactive | inactive | inactive | inactive | inactive | inactive | inactive | inactive | inactive |  |
| COc1cc(C)ccc1C(C)C | inactive | inactive | inactive | inactive | inactive | inactive | inactive | inactive | inactive | inactive | inactive | inactive | inactive | inactive | inactive | inactive | inactive | inactive | inactive | inactive |  |
| Cc1cc(O)c(C(C)C)cc1Cl [CHLOROTHYMOL] |  |  |  |  |  |  |  |  |  |  |  |  |  |  |  |  |  |  |  |  | inhibition zone (IZ) (Staphylococcus aureus [2]): 5 mm; MIC (Staphylococcus aureus [4]): 12.5 µg/mL (≈ 67.7 µM); MIC [6]: 25 µg/mL (≈ 135 µM); inhibition zone (IZ) (Candida albicans [15]): 30 mm; MIC (Candida albicans [16]): 100 µg/mL (≈ 542 µM); inhibition zone (IZ) (Candida albicans [17]): 20 mm; inhibition zone (IZ) [12]: 6 mm; MIC (Candida albicans [18]): 100 µg/mL (≈ 542 µM); MIC (Candida albicans [19]): 100 µg/mL (≈ 542 µM); inhibition zone (IZ) (Candida albicans [20]): 10 mm |
| COc1cc(C)c(I)cc1C(C)C | inactive | inactive | inactive | inactive | inactive | inactive | inactive | inactive | inactive | inactive | inactive | inactive | inactive | inactive | inactive | inactive | inactive | inactive | inactive | inactive |  |
| C[C@@H]1[C@H](O)[C@@H](C)/C=C/C=C/C=C/C=C/C=C/C=C/C=C/[C@H](O[C@@H]2O[C@H](C)[C@@H](O)[C@H](N)[C@@H]2O)C[C@@H]2O[C@](O)(C[C@@H](O)C[C@@H](O)[C@H](O)CC[C@@H](O)C[C@@H](O)CC(=O)O[C@H]1C)C[C@H](O)[C@H]2C(=O)O [AMPHOTERICIN B] |  |  |  |  |  |  |  |  |  |  |  |  |  |  |  |  |  |  |  |  | inhibition zone (IZ) (Candida albicans [15]): 30 mm; MIC (Candida albicans [16]): 100 µg/mL (≈ 108 µM); inhibition zone (IZ) (Candida albicans [17]): 20 mm; MIC (Candida albicans [18]): 100 µg/mL (≈ 108 µM); MIC (Candida albicans [19]): 100 µg/mL (≈ 108 µM); inhibition zone (IZ) (Candida albicans [20]): 10 mm |
